Laboratory results taken from US7772256B2, “2-heteroaryl substituted benzothiophenes and benzofuranes 709” (Astrazeneca AB, priority 2007, dated 2010).

Each molecule was assayed against T1, synthetic Aβ 1-40 (Homo sapiens, UniProt P05067) (assay: Competition binding assay ([3H]PIB as radioligand)). Settings: 2.7 nM [3H]PIB radioligand, phosphate buffer pH 7.5, 30 min room temperature.
T1 construct: synthetic Aβ 1-40
Method: Competition binding was performed in 384-well FB filter plates using synthetic Aβ 1-40 in 2.7 nM of [^3H]PIB (or another ^3H-labeled radioligand when so mentioned) in phosphate buffer at pH 7.5, by adding various concentrations of non-radioactive compounds originally dissolved in DMSO. The binding mixture was incubated for 30 min at room temperature, followed by vacuum filtration, and subsequentially by washing twice with 1% Triton-X100. Scintillation fluid was thereafter added to the collected Aβ 1-40 on the filter plate, and the activity of the bound remaining radioligand ([^3H]PIB or another ^3H-labeled radioligand) was measured using 1450 Microbeta from PerkinElmer. Specific binding was determined according to the competion binding assay described herein. The determined IC50's in the competion binding assays (using [^3H]PIB as radioligand) of compounds of the present invention are shown in Table 1.

T1 sequence (P05067 672-711 limits assumed): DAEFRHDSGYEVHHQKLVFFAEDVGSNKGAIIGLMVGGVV

IC50 [µM]	Structure (SMILES)
0.03	NC(=O)c1ccc(-c2cc3ccccc3s2)cn1 [5-(1-benzothien-2-yl)pyridine-2-carboxamide]
0.912	COc1ccc2oc(-c3ccc(N)nn3)cc2c1 [6-(5-Methoxy-benzofuran-2-yl)-pyridazin-3-ylamine]
0.361	COc1ccc2nc(-c3cc4ccccc4o3)cn2c1 [2-(1-benzofuran-2-yl)-6-methoxyimidazo[1,2-a]pyridine]
0.046	CNc1ccc(-c2cc3cc(O)ccc3o2)cn1 [2-(6-Methylamino-pyridin-3-yl)-benzofuran-5-ol]
0.018	CNc1ccc(-c2cc3cc(O)ccc3o2)c(F)n1 [2-(2-Fluoro-6-methylamino-pyridin-3-yl)-benzofuran-5-ol]
0.033	COc1ccc2oc(-c3ccc(C(N)=O)cn3)cc2c1 [6-(5-Methoxy-benzofuran-2-yl)-nicotinamide]
0.061	COc1ccc2oc(-c3ccc(C(N)=O)nc3)cc2c1 [5-(5-Methoxy-benzofuran-2-yl)-pyridine-2-carboxylic acid amide]
0.043	NC(=O)c1ccc(-c2cc3cc(O)ccc3o2)nc1 [6-(5-Hydroxy-benzofuran-2-yl)-nicotinamide]
2.71	Nc1ccc(-c2cc3cc(O)ccc3o2)nn1 [2-(6-Amino-pyridazin-3-yl)-benzofuran-5-ol]
0.032	CNc1ncc(-c2cc3cc(O)ccc3o2)cc1F [2-(5-fluoro-6-methylamino-pyridin-3-yl)-benzofuran-5-ol]
0.044	CNc1ccc(-c2cc3cc(O)ccc3o2)nc1F [2-(6-Fluoro-5-methylamino-pyridin-2-yl)-benzofuran-5-ol]
0.019	NC(=O)c1ccc(-c2cc3ccccc3o2)cn1 [5-(1-Benzofuran-2-yl)pyridine-2-carboxamide]
0.066	CNc1ccc(-c2cc3cc(OC)ccc3o2)cn1 [[5-(5-Methoxy-benzofuran-2-yl)-pyridin-2-yl]-methylamine]
0.6	NC(=O)c1ccc(-c2cc3cc(O)ccc3o2)cn1 [5-(5-Hydroxy-benzofuran-2-yl)-pyridine-2-carboxylic acid amide]
